Test results published in patent US6992079B2, “Substituted 11-phenyl-dibenzazepine compounds useful for the treatment or prevention of diseases characterized by abnormal cell proliferation” (President Fellows of Harvard College, priority 1997, dated 2006).

Key:
3T3 = experiment: SRB antiproliferative assay; format: cell-based; conditions: NIH3T3, 3T3 (Normal mouse), 5% FCS/5 day incubation
Text: (§1) The cells were passaged using Trypsin (Gibco).

ACHN = experiment: SRB antiproliferative assay; format: cell-based; conditions: Homo sapiens, ACHN (Renal), 5% FCS/5 day incubation
Text: as §1

CaSki = experiment: SRB antiproliferative assay; format: cell-based; conditions: Homo sapiens, Ca-Ski, CaSki (Cervical), 5% FCS/5 day incubation
Text: as §1

DU-145 = experiment: SRB antiproliferative assay; format: cell-based; conditions: Homo sapiens, DU-145 (Prostate), 5% FCS/5 day incubation
Text: as §1

GM = experiment: SRB antiproliferative assay; format: cell-based; conditions: GM (Normal human), 5% FCS/5 day incubation
Text: as §1

HCT-15 = experiment: SRB antiproliferative assay; format: cell-based; conditions: Homo sapiens, HCT-15 (Colon), 5% FCS/5 day incubation
Text: as §1

HTB174 = experiment: SRB antiproliferative assay; format: cell-based; conditions: Homo sapiens, HTB174 (Lung), 5% FCS/5 day incubation
Text: as §1

HUVEC = experiment: SRB antiproliferative assay; format: cell-based; conditions: HUVEC (Normal human), 5% FCS/5 day incubation
Text: as §1

L929 = experiment: SRB antiproliferative assay; format: cell-based; conditions: L929 (Normal mouse), 5% FCS/5 day incubation
Text: as §1

SK-MEL-28 = experiment: SRB antiproliferative assay; format: cell-based; conditions: Homo sapiens, SK-MEL-28 (Melanoma), 5% FCS/5 day incubation
Text: as §1

SK-OV-3 = experiment: SRB antiproliferative assay; format: cell-based; conditions: Homo sapiens, SK-OV-3 (Ovary), 5% FCS/5 day incubation
Text: as §1

[1] = tested on: human melanoma MM-RU cells; experiment: Lung metastases in MM-RU tumor-bearing mice; format: in vivo, nude mice
[2] = tested on: PC-3 Human Prostate Tumor cells; experiment: XTT growth inhibition assay; format: cell-based; conditions: PC-3 cells
[3] = tested on: Ca^2+ from intracellular pools / capacitative Ca^2+ influx; experiment: Intracellular Ca2+ release and capacitative Ca2+ influx; format: cell-based; conditions: in vitro
[4] = tested on: dominant negative PKR mutant cells; experiment: Growth of dominant negative PKR mutant cells; format: cell-based; conditions: FIG. 12
HCC-2998 = experiment: In-Vitro Testing SRB panel: Colon Cancer; format: cell-based
Text: The dose-response curve page of the data package is created by plotting the PGs against the log10 of the corresponding concentration for every cell line. The cell line curves are grouped by subpanel. Horizontal lines are provided at the PG values of […]. The concentrations corresponding to points where the curves cross these lines are the GI50, TGI, and LC50, respectively.

[5] = MM-RU tumor-bearing mice, 80 mg/kg/d × 5/w × 3 s.c.
[6] = MM-RU tumor-bearing mice, 100 mg/kg/d × 28, p.o.

With `O=C(c1ccc([N+](=O)[O-])cc1)N1Cc2ccccc2C(c2ccccc2Cl)c2ccccc21` (stereo not drawn) [Compound 28, N-(4′-Nitrobenzoyl)-11-(2′-chlorophenyl)-5,6-dihydro-11H-dibenz[b,e]azepine] as the compound, how does the IC50 (3T3) read?
Its IC50 is > 1000 nM.

And the IC50 (ACHN)?
Its IC50 is 700 nM.

And the IC50 (CaSki)?
Its IC50 is 500 nM.

What about the IC50 (DU-145) of the same compound?
The IC50 was 900 nM.

And the IC50 (GM)?
The IC50 was 900 nM.

What about the IC50 (HCT-15) of the same compound?
The IC50 was 400 nM.

What about the IC50 (HTB174) of the same compound?
Its IC50 is 100 nM.

What about the IC50 (HUVEC) of the same compound?
Its IC50 is 700 nM.

What about the IC50 (L929) of the same compound?
Its IC50 is 600 nM.

And the IC50 (SK-MEL-28)?
Its IC50 is 400 nM.

What about the IC50 (SK-OV-3) of the same compound?
The IC50 was > 1000 nM.

What about the “Body Wt. Change” value [1, 5] of the same compound?
Its value is 107%.

What about the “Liver Wt.” value [1, 5] of the same compound?
Its value is 0.97 ± 0.12 gram.

What about the “Lung Metastases” value [1, 5] of the same compound?
The value was 46 ± 12.

And the “Body Wt. Change” value [1, 6]?
The value was 105%.

And the “Liver Wt.” value [1, 6]?
The value was 1.00 ± 0.09 gram.

What about the “Lung Metastases” value [1, 6] of the same compound?
Its value is 45 ± 10.

What about the Lung Metastases ([1]; nude mice, MM-RU cells, oral administration or subcutaneous injection) of the same compound?
Its Lung Metastases is “lung metastases were significantly reduced”.

And the “PC-3 prostate cancer cell growth (XTT)” value [2]?
The value was “inhibits PC-3 prostate cancer cell growth”.

What about the “Ca^2+ release from intracellular pools” value [3] of the same compound?
Its value is “releases Ca^2+ from intracellular pools”.

And the “capacitative Ca^2+ influx into the cell” value [3]?
Its value is “inhibits capacitative Ca^2+ influx”.

And the “resistance of dominant negative PKR mutant cells to compound” value [4]?
Its value is “resistance of dominant negative PKR mutant cells”.

With `COc1cccc2c1C(c1ccccc1Cl)c1cc(Cl)ccc1N(C(=O)c1ccc([N+](=O)[O-])cc1)C2` (stereo not drawn) [Compound 31] as the compound, how does the TGI (HCC-2998; HCC-2998) read?
Its TGI is >1.00E−04 Molar.

What about the “Percent Growth” value (HCC-2998; HCC-2998, log10 conc -4 Molar) of the same compound?
Its value is 33%.

What about the “Percent Growth” value (HCC-2998; HCC-2998, log10 conc -5 Molar) of the same compound?
Its value is 45%.

And the “Percent Growth” value (HCC-2998; HCC-2998, log10 conc -6 Molar)?
Its value is 59%.

And the “Percent Growth” value (HCC-2998; HCC-2998, log10 conc -7 Molar)?
The value was 93%.

What about the “Percent Growth” value (HCC-2998; HCC-2998, log10 conc -8 Molar) of the same compound?
The value was 104%.

And the GI50 (HCC-2998; Homo sapiens, HCC 2998)?
The GI50 was 4340 nM.

And the CC50 (HCC-2998; Homo sapiens, HCC-2998, read-out: LC50 (the source's name))?
Its CC50 is > 100000 nM.
